In patent US20130012466A1 (priority 2006, published 2013):
Like-named read-outs stand apart in the source and are kept apart here.

Assays:
ADR-RES = test: Cytotoxicity assay (cell titer-glo and calcein AM), ADR-RES; details: NCI/ADR RES, % error in parentheses
Du145 = test: Cytotoxicity assay (cell titer-glo and calcein AM), Du145; details: Du145, % error in parentheses
Hep3B = test: Cytotoxicity assay (cell titer-glo and calcein AM), Hep3B; details: Hep 3B, % error in parentheses
MCF7 = test: Cytotoxicity assay (cell titer-glo and calcein AM), MCF7
NCI-H460 = test: Cytotoxicity assay (cell titer-glo and calcein AM), NCI-H460; details: NCI-H460, % error in parentheses
[1] = tested on: mouse mammary normal epithelial control cell line; test: Cytotoxicity assay, normal control cell line
SK-OV-3 = test: Cytotoxicity assay (cell titer-glo and calcein AM), SK-OV-3; details: SK-OV-3, % error in parentheses
SF-268 = test: Cytotoxicity assay (cell titer-glo and calcein AM), SF-268; details: SF-268, % error in parentheses
A549 = test: Cytotoxicity assay (cell titer-glo and calcein AM), A549; details: A549, % error in parentheses
[2] = read-out: Cytotoxicity IC50, NCI/ADR RES, CTG, CTG (cell titer-glo) readout
[3] = read-out: Cytotoxicity IC50, NCI/ADR RES, calcein, calcein AM readout
[4] = read-out: Cytotoxicity IC50, Du145, CTG, CTG (cell titer-glo) readout
[5] = read-out: Cytotoxicity IC50, Du145, calcein, calcein AM readout
[6] = read-out: Cytotoxicity IC50, Hep 3B, CTG, CTG (cell titer-glo) readout
[7] = read-out: Cytotoxicity IC50, Hep 3B, calcein, calcein AM readout
[8] = read-out: Cytotoxicity IC50, MCF7, CTG, CTG (cell titer-glo) readout, % error in parentheses
[9] = read-out: Cytotoxicity IC50, MCF7, calcein, calcein AM readout, % error in parentheses
[10] = read-out: Cytotoxicity IC50, NCI-H460, CTG, CTG (cell titer-glo) readout
[11] = read-out: Cytotoxicity IC50, NCI-H460, calcein, calcein AM readout
[12] = read-out: Cytotoxicity IC50, NmuMG, CTG, CTG (cell titer-glo) readout, % error in parentheses
[13] = read-out: Cytotoxicity IC50, NmuMG, calcein, calcein AM readout, % error in parentheses
[14] = read-out: Cytotoxicity IC50, SK-OV-3, CTG, CTG (cell titer-glo) readout
[15] = read-out: Cytotoxicity IC50, SK-OV-3, calcein, calcein AM readout
[16] = read-out: Cytotoxicity IC50, SF-268, CTG, CTG (cell titer-glo) readout
[17] = read-out: Cytotoxicity IC50, SF-268, calcein, calcein AM readout
[18] = read-out: Cytotoxicity IC50, A549, CTG, CTG (cell titer-glo) readout
[19] = read-out: Cytotoxicity IC50, A549, calcein, calcein AM readout

Row | Molecule | IC50 (ADR-RES; [2]) [µM] | IC50 (ADR-RES; [3]) [µM] | IC50 (Du145; [4]) [µM] | IC50 (Du145; [5]) [µM] | IC50 (Hep3B; [6]) [µM] | IC50 (Hep3B; [7]) [µM] | IC50 (MCF7; [8]) [µM] | IC50 (MCF7; [9]) [µM] | IC50 (NCI-H460; [10]) [µM] | IC50 (NCI-H460; [11]) [µM] | IC50 [1, 12] [µM] | IC50 [1, 13] [µM] | IC50 (SK-OV-3; [14]) [µM] | IC50 (SK-OV-3; [15]) [µM] | IC50 (SF-268; [16]) [µM] | IC50 (SF-268; [17]) [µM] | IC50 (A549; [18]) [µM] | IC50 (A549; [19]) [µM]
1 | COc1cc2c(c(OC)c1OC)-c1ccc(OC)c(=O)cc1C(NC(=O)CN(OC)C1OCC(O)C(O)C1O)CC2 [Col20, D-arabinoside] | 7.85 | 7.74 | 2.41 | 3.74 | > 10 | > 10 | 4.44 | 2.35 | 5.21 | 3.71 | > 10 | > 10 | > 10 | > 10 | 2.54 | 3.95 | 9.07 | > 10
2 | mycaroside [Col49] | 5.38 | > 10 | 5.2 | 8.56 | 9.76 | > 10 | 4.38 | 5.21 | ≥ 10 | 9.31 | > 10 | 8.84 | > 10 | > 10 | 9.94 | 7.86 | > 10 | > 10
3 | COc1cc2c(c(OC)c1OC)-c1ccc(OC)c(=O)cc1[C@@H](NC(=O)CN(OC)[C@@H]1O[C@H](CCl)[C@H](O)[C@H](O)[C@H]1O)CC2 [Col41, 6-deoxy-6-chloro-D-galactoside] | 4.97 | 3.68 | 6.69 | 6.74 | 8.8 | 5.99 | 3.36 | 1.85 | 5.48 | 2.31 | > 10 | 9.27 | 5.61 | 7.95 | 6.93 | 7.87 | 3.7 | 1.07
4 | COc1cc2c(c(OC)c1OC)-c1ccc(OC)c(=O)cc1[C@@H](NC(=O)CN(OC)[C@@H]1OC[C@@H](O)[C@@H](O)[C@H]1O)CC2 [Col5, D-riboside] | 4.84 | 5.06 | > 10 | 6.78 | 9.86 | 6.52 | 2.84 | 2.88 | 5.06 | 5.76 | > 10 | > 10 | > 10 | > 10 | 5.01 | 4.59 | > 10 | > 10
5 | COc1cc2c(c(OC)c1OC)-c1ccc(OC)c(=O)cc1[C@@H](NC(=O)CN(OC)[C@@H]1O[C@H](CO)[C@@H](O)[C@H](F)[C@H]1O)CC2 [Col33, 3-fluoro-3-deoxy-D-glucoside] | > 10 | > 10 | 9.6 | 5.44 | 2.67 | 1.99 | 6.64 | 6.13 | 4.39 | > 10 | 5.93 | > 10 | 1.25 | 1.89 | 0.86 | 2.33 | 2.02 | 1.87
6 | COc1cccc2c1C(=O)c1c(O)c3c(c(O)c1C2=O)C[C@@](O)(C(=O)CO)C[C@@H]3O[C@H]1C[C@H](N)[C@H](O)[C@H](C)O1 [doxorubi] | 0.57 | – | 0.842 | 0.339 | 0.519 | 0.268 | – | – | – | – | – | – | 0.394 | 0.621 | 0.249 | 0.385 | – | –
7 | COc1cc2c(c(OC)c1OC)-c1ccc(OC)c(=O)cc1[C@@H](NC(C)=O)CC2 [Col] | > 10 | 6.32 | > 10 | 4.67 | > 10 | 9.38 | – | – | – | – | – | – | > 10 | – | > 10 | > 10 | – | –
